Results from patent publication US10596172B2 (Celgene CAR LLC, priority 2008, dated 2020).
Where two headings read alike, the source gives them in different places.

Legend:
[1] = target: EGFR-WT (Homo sapiens (Human), UniProt P00533); assay: Omnia assay for potency assessment against EGFR (WT); assay type: biochemical; details: wild-type EGFR; read-out: EGFR Wild Type Inhibition
[2] = target: BTK (Homo sapiens (Human), UniProt Q06187); assay: Omnia assay for potency assessment against BTK; assay type: biochemical; details: [BTK]=5 nm; read-out: BTK Inhibition
Chain of BTK (Q06187 whole entry): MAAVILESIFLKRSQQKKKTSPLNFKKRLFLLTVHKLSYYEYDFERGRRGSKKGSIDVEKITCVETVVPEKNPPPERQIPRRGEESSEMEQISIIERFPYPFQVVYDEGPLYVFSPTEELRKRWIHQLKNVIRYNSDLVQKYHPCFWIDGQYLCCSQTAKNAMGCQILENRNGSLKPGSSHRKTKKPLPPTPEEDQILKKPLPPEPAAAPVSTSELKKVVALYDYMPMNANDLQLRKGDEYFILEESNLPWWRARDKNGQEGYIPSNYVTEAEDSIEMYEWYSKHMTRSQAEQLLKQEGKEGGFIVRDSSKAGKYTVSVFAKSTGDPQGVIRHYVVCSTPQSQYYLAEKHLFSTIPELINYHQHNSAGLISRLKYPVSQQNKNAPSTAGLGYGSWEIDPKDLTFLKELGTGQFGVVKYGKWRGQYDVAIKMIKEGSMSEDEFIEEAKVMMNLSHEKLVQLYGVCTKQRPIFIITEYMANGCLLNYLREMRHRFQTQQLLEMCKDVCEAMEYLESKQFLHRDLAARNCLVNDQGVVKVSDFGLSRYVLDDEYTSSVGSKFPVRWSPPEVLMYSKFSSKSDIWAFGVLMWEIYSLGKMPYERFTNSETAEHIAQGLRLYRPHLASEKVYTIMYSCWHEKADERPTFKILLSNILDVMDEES
Description: Omnia Assay Protocol for Potency Assessment Against BTK
The modified BTK-optimized reagent conditions for the above protocol are:
[BTK]=5 nm, [ATP]=40 mM, [Y5-Sox]=10 mM (ATP KMapp˜36 mM).

[3] = tested on: B cell lymphoma cell lines; assay: B cell lymphoma proliferation assay; assay type: cell-based; details: Homo sapiens
[4] = target: JAK3 (Homo sapiens (Human), UniProt P52333); assay: Omnia assay for potency assessment against the active form of JAK3; assay type: biochemical; details: read-out: JAK3 Inhibition
Chain of JAK3 (P52333 whole entry): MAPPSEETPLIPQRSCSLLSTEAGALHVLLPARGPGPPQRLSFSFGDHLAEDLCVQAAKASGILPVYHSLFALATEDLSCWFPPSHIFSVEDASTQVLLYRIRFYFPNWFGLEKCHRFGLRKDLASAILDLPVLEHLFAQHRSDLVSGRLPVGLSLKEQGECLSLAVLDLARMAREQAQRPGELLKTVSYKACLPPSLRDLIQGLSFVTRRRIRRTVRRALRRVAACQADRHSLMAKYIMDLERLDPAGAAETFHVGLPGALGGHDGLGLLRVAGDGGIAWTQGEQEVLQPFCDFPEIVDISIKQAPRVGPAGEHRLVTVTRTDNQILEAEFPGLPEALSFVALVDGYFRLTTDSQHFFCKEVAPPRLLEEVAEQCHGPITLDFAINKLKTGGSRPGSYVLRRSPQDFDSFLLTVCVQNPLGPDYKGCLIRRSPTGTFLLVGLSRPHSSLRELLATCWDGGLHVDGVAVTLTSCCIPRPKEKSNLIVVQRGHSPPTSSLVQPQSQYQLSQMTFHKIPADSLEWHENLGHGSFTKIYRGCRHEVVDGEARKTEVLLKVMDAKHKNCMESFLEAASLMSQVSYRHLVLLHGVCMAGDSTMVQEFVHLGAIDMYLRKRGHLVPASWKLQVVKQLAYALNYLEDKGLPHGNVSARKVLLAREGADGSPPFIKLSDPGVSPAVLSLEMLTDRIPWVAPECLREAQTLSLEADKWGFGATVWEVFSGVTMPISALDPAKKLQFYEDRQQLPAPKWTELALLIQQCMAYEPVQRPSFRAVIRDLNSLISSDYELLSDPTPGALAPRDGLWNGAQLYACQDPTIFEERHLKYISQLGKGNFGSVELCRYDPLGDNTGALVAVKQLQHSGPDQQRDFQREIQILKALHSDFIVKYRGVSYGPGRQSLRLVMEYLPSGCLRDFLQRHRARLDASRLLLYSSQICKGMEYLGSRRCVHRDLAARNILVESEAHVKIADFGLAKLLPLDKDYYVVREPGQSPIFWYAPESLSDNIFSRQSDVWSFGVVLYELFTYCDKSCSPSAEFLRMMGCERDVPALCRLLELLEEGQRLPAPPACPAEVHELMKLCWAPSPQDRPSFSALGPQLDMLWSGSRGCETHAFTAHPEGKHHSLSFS
Description: Briefly, 10× stocks of EGFR-WT (PV3872) from Invitrogen and EGFR-T790M/L858R (40350) from BPS Bioscience, San Diego, Calif., 1.13×ATP (AS001A) and appropriate Tyr-Sox conjugated peptide substrates (KCZ1001) were prepared in 1× kinase reaction buffer consisting of 20 mM Tris, pH 7.5, 5 mM MgCl2, 1 mM EGTA, 5 mM β-glycerophosphate, 5% glycerol (10× stock, KB002A) and 0.2 mM DTT (DS001A).
The Omnia Assay Protocol for potency assessment against JAK3 was performed in a substantially similar manner as that described in Example 251 above except that the modified JAK3-optimized reagent conditions were:
[JAK3]=5 nM, [ATP]=5 μM, [Y12-Sox]=5 μM (ATP KMapp˜5 μM).

[5] = DOHH-2, DOHH2 B cell lymphoma cell line, read-out: EC50 (μM) DOHH2
[6] = WSUDLCL2, WSU-DLCL2 B cell lymphoma cell line, read-out: EC50 (μM) WSU-DLCL2

Row | IC50 [1] | IC50 [2] | EC50 [3, 5] | EC50 [3, 6] | IC50 [4] | Molecule
1 | – | – | 1 to 10 µM | 1 to 10 µM | < 10 nM | C=CC(=O)Nc1ccc(Nc2nc(Nc3ccccc3)ncc2C)cc1 [Compound I-39, N-(4-(5-methyl-2-(phenylamino)pyrimidin-4-ylamino)phenyl) acrylamide]
2 | – | – | 0.1 to 1 µM | 1 to 10 µM | < 10 nM | C=CC(=O)N1CCc2cc(Nc3nc(Nc4cccc(S(N)(=O)=O)c4)ncc3C)ccc2C1 [Compound I-40, 3-(4-(2-acryloyl-1,2,3,4-tetrahydroisoquinolin-6-ylamino)-5-methylpyrimidin-2-ylamino)benzenesulfonamide]
3 | 1000 to 10000 nM | 1000 to 10000 nM | – | – | – | C=CC(=O)Nc1cccc(Oc2nc(Nc3cc(OC)c(OC)c(OC)c3)ncc2F)c1 [Compound I-148, N-(3-(5-fluoro-2(3,4,5-trimethoxyphenylamino)pyrimidin-4-yloxy)phenyl)acrylamide]
4 | 10 to 100 nM | – | – | – | – | C=CC(=O)N1CCOc2ccc(Nc3nc(Nc4ccc(OC)nc4)ncc3C(C)=O)cc21 [Compound I-170, 1-{6-[5-Acetyl-2-(6-methoxy-pyridin-3-ylamino)-pyrimidin-4-ylamino]-2,3-dihydro-benzo[1,4]oxazin-4-yl}-propenone]
5 | 100 to 1000 nM | 100 to 1000 nM | – | – | – | C=CC(=O)N1CCC[C@H](Nc2nc(Nc3ccc(OC)nc3)ncc2F)C1 [Compound I-197, (S)-1-(3-(5-fluoro-2-(6-methoxypyridin-3-ylamino)pyrimidin-4-ylamino)piperidin-1-yl)prop-2-en-1-one]
6 | – | – | 1 to 10 µM | > 10 µM | < 10 nM | C=CC(=O)Nc1cccc(Nc2nc(Nc3ccccc3)ncc2C(F)(F)F)c1 [Compound I-245, N-(3-(5-trifluoromethyl-2-(phenylamino)pyrimidin-4-ylamino)phenyl)acrylamide]
7 | 10 to 100 nM | < 10 nM | – | – | – | C=CC(=O)Nc1cccc(Nc2nc(Nc3ccc(OCCOC)c(OCCOC)c3)ncc2F)c1 [Compound I-277, N-(3-(2-(3,4-bis(2-methoxyethoxy)phenylamino)-5-fluoropyrimidin-4-ylamino)phenyl)acrylamide]
8 | 10 to 100 nM | – | – | – | – | C=CC(=O)Nc1cccc(Nc2ncc(F)c(Nc3ccc(O[C@H]4CCOC4)cc3)n2)c1 [Compound I-338, (S)—N-(3-(5-fluoro-4-(4-(tetrahydrofuran-3-yloxy)phenylamino)pyrimidin-2-ylamino)phenyl)acrylamide]
9 | < 10 nM | < 10 nM | – | – | < 10 nM | Cc1cccc(Nc2nc(Nc3cccc(NC(=O)/C=C/CN(C)C)c3)ncc2C)c1 [Compound I-360, (E)-4-(dimethylamino)-N-(3-(5-methyl-4-(m-tolylamino)pyrimidin-2-ylamino)phenyl)but-2-enamide]
10 | < 10 nM | < 10 nM | – | – | – | C=CC(=O)Nc1cccc(Nc2nc(Nc3ccc(OCCOCCNC(=O)CCCC(=O)NCCCOCCOCCOCCCNC(=O)CCCC[C@@H]4SC[C@@H]5NC(=O)N[C@@H]54)cc3)ncc2F)c1 [Compound I-363, N1-(2-(2-(4-(4-(3-acrylamidophenylamino)-5-fluoropyrimidin-2-ylamino)phenoxy)ethoxy)ethyl)-N5-(15-oxo-19-((3aS,4S,6aR)-2-oxohexahydro-1H-thieno[3,4-d]imidazol-4-yl)-4,7,10-trioxa-14-azanonadecyl)glutaramide]
11 | 100 to 1000 nM | < 10 nM | – | – | – | C=CC(=O)Nc1cccc(Nc2nc(Nc3ccc(Cl)c(O[C@@H](C)COC(=O)[C@@H](N)C(C)C)c3)ncc2F)c1 [Compound I-369, (S)-((S)-2-(5-(4-(3-acrylamidophenylamino)-5-fluoropyrimidin-2-ylamino)-2-chlorophenoxy)propyl)-2-amino-3-methylbutanoate]
12 | < 10 nM | < 10 nM | – | – | – | C=CC(=O)Nc1cccc(Nc2nc(Nc3ccc(OCCOCCNC(=O)OC(C)(C)C)cc3)ncc2F)c1 [Compound I-370, tert-butyl 2-(2-(4-(4-(3-acrylamidophenylamino)-5-fluoropyrimidin-2-ylamino)phenoxy)ethoxy)ethylcarbamate]
13 | 10 to 100 nM | < 10 nM | – | – | – | C=CC(=O)Nc1cccc(Nc2nc(Nc3ccc(OCCOCCN=[N+]=[N-])cc3)ncc2F)c1 [Compound I-371, N-(3-(2-(4-(2-(2-azidoethoxy)ethoxy)phenylamino)-5-fluoropyrimidin-4-ylamino)phenyl)acrylamide]
14 | 10 to 100 nM | < 10 nM | – | – | – | C=CC(=O)Nc1cccc(Nc2nc(Nc3ccc(O[C@H](C)CO)c(F)c3)ncc2F)c1 [Compound I-372, (R)—N-(3-(5-fluoro-2-(3-fluoro-4-(1-hydroxypropan-2-yloxy)phenylamino)pyrimidin-4-ylamino)phenyl)acrylamide]
15 | 10 to 100 nM | < 10 nM | – | – | – | C=CC(=O)Nc1cccc(Nc2nc(Nc3ccc(O[C@@H](C)CO)c(F)c3)ncc2F)c1 [Compound I-373, (S)—N-(3-(5-fluoro-2-(3-fluoro-4-(1-hydroxypropan-2-yloxy)phenylamino)pyrimidin-4-ylamino)phenyl)acrylamide]
16 | < 10 nM | < 10 nM | – | – | – | C=CC(=O)Nc1cccc(Nc2nc(Nc3ccc(O[C@H](C)COC(=O)[C@@H](N)C(C)C)c(F)c3)ncc2F)c1 [Compound I-374, (S)-((R)-2-(4-(4-(3-acrylamidophenylamino)-5-fluoropyrimidin-2-ylamino)-2-fluorophenoxy)propyl) 2-amino-3-methylbutanoate]
17 | 10 to 100 nM | < 10 nM | – | – | – | C=CC(=O)Nc1cccc(Nc2nc(Nc3ccc(OCCN=[N+]=[N-])cc3)ncc2F)c1 [Compound I-376, N-(3-(2-(4-(2-azidoethoxy)phenylamino)-5-fluoropyrimidin-4-ylamino)phenyl)acrylamide]
18 | 10 to 100 nM | – | – | – | – | C=CC(=O)Nc1cccc(Nc2nc(Nc3ccc(O[C@@H](C)COC(=O)[C@@H](N)C(C)C)c(F)c3)ncc2F)c1 [Compound I-377, (S)-((S)-2-(4-(4-(3-acrylamidophenylamino)-5-fluoropyrimidin-2-ylamino)-2-fluorophenoxy)propyl) 2-amino-3-methylbutanoate]
19 | 10 to 100 nM | < 10 nM | – | – | – | COCCOc1ccc(Nc2ncc(F)c(Nc3ccc(CC(=O)C=C4CCC4)cc3)n2)cc1F [Compound I-378]
20 | 100 to 1000 nM | – | – | – | – | C=CC(=O)Nc1cccc(Nc2nc(Nc3ccc(OCCOCCOCCN=[N+]=[N-])cc3)ncc2F)c1 [Compound I-379, N-(3-(2-(4-(2-(2-(2-azidoethoxy)ethoxy)ethoxy)phenylamino)-5-fluoropyrimidin-4-ylamino)phenyl)acrylamide]
21 | < 10 nM | < 10 nM | – | – | – | C=CC(=O)Nc1cccc(Nc2ncc(F)c(Nc3ccc(OCCOC)cc3)n2)c1 [Compound I-381, N-(3-(5-fluoro-4-(4-(2-methoxyethoxy)phenylamino)pyrimidin-2-ylamino)phenyl)acrylamide]
22 | 100 to 1000 nM | 10 to 100 nM | – | – | – | C=CC(=O)Nc1cccc(Nc2ncc(F)c(Nc3cccc(OCCN4CCOCC4)c3)n2)c1 [Compound I-382, N-(3-(5-fluoro-4-(3-(2-morpholinoethoxy)phenylamino)pyrimidin-2-ylamino)phenyl)acrylamide]

Row | Molecule | IC50 [1] | IC50 [2] | EC50 [3, 5] | EC50 [3, 6] | IC50 [4]
23 | 4-(4-(4-(3-acrylamidophenylamino)-5-fluoropyrimidin-2-ylamino)phenoxy)pyridine [Compound I-346] | 100 to 1000 nM | < 10 nM | – | – | –
